Reference: patent US7763615B2, “Ecteinascidin analogs for use as antitumour agents” (priority 2001, dated 2010)

Assays:
[1] = test system: L8, normal rat skeletal muscle cells; conditions: 24 h
Protocol: (§2) In order to assess the cytotoxicity of the drugs to normal cells, we used 96 well plates plated at a density of 5000 cells per well (except for the FDC-P1 which were plated at 12,000 cells per well) with normal cell lines (ATCC, Table 1) maintained as per the directions of the ATCC: AML-12, normal mouse liver cells; NRK-52E, normal rat kidney cells; L8, normal rat skeletal muscle cells; FDC-P1, normal mouse myelogeous stem cells; and H9c2 (2-1), normal rat cardiac muscle cells. The cells in each plate were permitted to settle overnight before adding the test drug.
(§3) To each well (100 μl medium) 10 μl of drug in media was added at varying concentrations (1×10-10-0.01 mg/ml final concentration) and further incubated overnight at 37° C. with 5% CO2. After 24 h the following assays were performed. All experiments were repeated at least 3 times and were assayed in duplicate.
(§4) MTS assay (CellTiter 96 aqueous) was performed according to the manufacturer's (Promega) directions (for all cell types). Cell viability (mitochondrial activity) is determined via enzymatic conversion of the formazan substrate.

[2] = test system: NRK-52E, normal rat kidney cells; conditions: 24 h
Protocol: as §2, §3, §4

physchem [3] = conditions: pH 7.4, log D n-Octanol-Dulbecco's PBS pH 7.4
Protocol: The measurement of partition coefficient was evaluated based on a miniaturized shake-flask procedure. Buffer (Dulbecco's PBS, pH 7.40) was used as the aqueous phase. The tested compound was dissolved in DMSO, at the concentration of 100 μM. The final DMSO concentration (1%.) during the octanol-buffer partitioning are very low to avoid bias on the partitioning. The amount of compound in the buffer phase was determined by HPLC with photodiode array detection after an equilibration phase of 60 min. The amount of compound in the octanol phase is calculated by subtraction of the amount of compound in buffer from the total amount of compound, which is determined from a calibration sample.
Log D is calculated as the Log10 of the amount of compound in the octanol phase divided by the amount of compound in the buffer phase. The effective range of the log D microassay is approximately −0.5 to +4.5.

H-MEC-1 = assay: Inhibition of cells growth by colorimetric assay (SRB), H-MEC-1; assay type: cell-based; conditions: Homo sapiens, HMEC-1, 48 h
How it was run: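 For 48 hours, cells seeded at 5×10^3 per well were kept in contact with samples spanning 10 to 10^−8 μg/ml after an 18-hour attachment period. Viable biomass was then estimated colorimetrically with sulphorhodamine B at 490 nm.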

CYP3A4 = CYP3A4 (Homo sapiens, UniProt P08684); assay: in vitro; conditions: CYP3A4 (% inhibition)
SK-OV3 = assay: Inhibition of cells growth by colorimetric assay (SRB), SK-OV3; assay type: cell-based
Excerpt: The finality of these assays is to interrupt the growth of a “in vitro” tumor cell culture by means of a continued exhibition of the cells to the sample to be testing.
A colorimetric type of assay, using sulphorhodamine B (SRB) reaction has been adapted for a quantitative measurement of cell growth and viability [following the technique described by Philip Skehan, et al. (1990), New colorimetric cytotoxicity assay for anticancer drug screening, J. Natl. Cancer Inst., 82:1107-1112]
This form of the assay employs 96 well cell culture microplates of 9 mm diameter (Faircloth, 1988; Mosmann, 1983). Most of the cell lines are obtained from American Type Culture Collection (ATCC) derived from different human cancer types.
Cells are maintained in RPMI 1640 10% FBS, supplemented with 0.1 g/l penicillin and 0.1 g/l streptomycin sulphate and then incubated at 37° C., 5% CO2 and 98% humidity. For the experiments, cells were harvested from subconfluent cultures using trypsin and resuspended in fresh medium before plating.
Cells are seeded in 96 well microtiter plates, at 5×10^3 cells per well in aliquots of 195 μl medium, and they are allowed to attach to the plate surface by growing in drug free medium for 18 hours. Afterward, samples are added in aliquots of 5 μl in a ranging from 10 to 10^−8 μg/ml, dissolved in DMSO/EtOH/PBS (0.5:0.5:99). After 48 hours exposure, the antitumor effect are measured by the SRB methodology: cells are fixed by adding 50 μl of cold 50% (wt/vol) trichloroacetic acid (TCA) and incubating for 60 minutes at 4° C. Plates are washed with deionized water and dried. One hundred μl of SRB solution (0.4% wt/vol in 1% acetic acid) is added to each microtiter well and incubated for 10 minutes at room temperature. Unbound SRB is removed by washing with 1% acetic acid. Plates are air dried and bound stain is solubilized with Tris buffer. Optical densities are read on a automated spectrophotometric plate reader at a single wavelength of 490 nm.
The values for mean+/− SD of data from triplicate wells are calculated. Some parameters for cellular responses can be calculated: GI=growth inhibition, TGI=total growth inhibition (cytostatic effect) and LC=cell killing (cytotoxic effect).

physchem [4] = conditions: pH 7.4, aqueous buffer, Solubility Dulbecco's PBS pH 7.4
LOVO-DOX = assay: cells; assay type: cell-based; conditions: Homo sapiens, 48 h
How it was run: (§1)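 Seeding density 5×10^3 cells/well; attachment 18 h in drug-free medium; exposure 48 h, 10 to 10^−8 μg/ml. Fixation cold TCA 60 min at 4° C, SRB 10 min, absorbance 490 nm.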

SK-BR3 = assay: cells; assay type: cell-based; conditions: Homo sapiens, SK-BR-3, 48 h
How it was run: as §1

IGROV-ET = assay: cells; assay type: cell-based; conditions: Homo sapiens, 48 h
How it was run: as §1

LOVO = assay: cells; assay type: cell-based; conditions: Homo sapiens, LoVo, 48 h
How it was run: as §1

DU145 = assay: cells; assay type: cell-based; conditions: Homo sapiens, DU-145, 48 h
How it was run: as §1

PANC-1 = assay: cells; assay type: cell-based; conditions: Homo sapiens, PANC-1, 48 h
How it was run: as §1

A549 = assay: cells; assay type: cell-based; conditions: Homo sapiens, A549, 48 h
How it was run: as §1

MEL-28 = assay: cells; assay type: cell-based; conditions: Homo sapiens, SK-MEL-28, 48 h
How it was run: as §1

HT29 = assay: cells; assay type: cell-based; conditions: Homo sapiens, HT-29, 48 h
How it was run: as §1

K562 = assay: cells; assay type: cell-based; conditions: Homo sapiens, K562, 48 h
How it was run: as §1

IGROV = assay: cells; assay type: cell-based; conditions: Homo sapiens, 48 h
How it was run: as §1

LNCAP = assay: cells; assay type: cell-based; conditions: Homo sapiens, LNCaP, 48 h
How it was run: as §1

[5] = s9, 60 min, 1 μM
Protocol: The metabolic stability was determined used human liver S9 homogenate that including both microsomal and cytosolic enzyme activities. The test compound was diluted in methanol (0.625%) and acetonitrile (0.625%) at the concentration 1 μM and incubated in the human liver pool (protein=1 mg/mL) during 60 min at 37° C. Peak areas corresponding to all analytes (metabolic products) were determined by HPLC-MS/MS. Areas were recorded and ratios of peak areas of analytes to that of internal standard for each analyte were determined. The ratio of precursor compound remaining after 60 minutes and the amount remaining at time zero, expressed as percent, are reported as metabolic stability. Higher values mean higher metabolic stability.

[6] = test system: H9c2 (2-1), normal rat cardiac muscle cells; conditions: 24 h
(HEPG2) = conditions: human, 24 h, 30 μM
Protocol: The toxic potential of compounds was investigated in vitro using primary human hepatocytes (HEPG2). The compounds were tested at 30 μM in duplicate with a final DMSO concentration of 1%. After incubation during 24 h at 37° C. the cell viability was determined by the conversion of oxided alarmarBlue (resazurin) to reduced alarmarBlue (resorufin). Chlorpromazine was used as reference compound. Results are expressed as a percent of inhibition of control values.

[7] = test system: FDC-P1, normal mouse myelogeous stem cells; conditions: 24 h
Protocol: as §2, §3, §4

[8] = test system: AML-12, normal mouse liver cells; conditions: 24 h
Protocol: as §2, §3, §4

[9] = H-MEC-1, 48 hours exposure, SRB
[10] = LOVO-DOX, 48 hours exposure, SRB
[11] = IGROV-ET, 48 hours exposure, SRB

Chain of CYP3A4 (P08684 whole entry): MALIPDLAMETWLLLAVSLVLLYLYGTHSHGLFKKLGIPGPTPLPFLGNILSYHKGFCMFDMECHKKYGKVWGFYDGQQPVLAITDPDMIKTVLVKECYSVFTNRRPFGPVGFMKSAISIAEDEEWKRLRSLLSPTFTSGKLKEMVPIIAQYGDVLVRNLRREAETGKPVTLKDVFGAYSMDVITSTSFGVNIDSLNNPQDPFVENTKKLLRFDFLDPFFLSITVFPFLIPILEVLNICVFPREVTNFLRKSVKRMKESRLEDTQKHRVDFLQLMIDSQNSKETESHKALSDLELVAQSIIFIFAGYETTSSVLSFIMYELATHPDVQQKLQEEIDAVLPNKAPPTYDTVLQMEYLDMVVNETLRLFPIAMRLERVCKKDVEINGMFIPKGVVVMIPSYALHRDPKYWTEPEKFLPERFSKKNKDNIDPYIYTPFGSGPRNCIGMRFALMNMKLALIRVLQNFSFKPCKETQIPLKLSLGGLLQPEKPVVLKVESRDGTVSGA

SMILES: COc1c(C)cc2c(c1O)[C@@H]1C3[C@@H]4SC[C@]5(NCCc6c5[nH]c5ccc(F)cc65)C(=O)COC[C@@H](c5c6c(c(C)c(OC(C)=O)c54)OCO6)N3[C@@H](O)[C@H](C2)N1C (stereo partly shown) [Compound 35]
- Skeletal [1]: 3.07E−08
- Kidney [2]: 3.42E−08
- logD at 60 min (physchem [3]): > 5
- GI50 (H-MEC-1; [9]): 2.6 nM
- IC (TGI) (H-MEC-1; [9]): 30.4 nM
- CC50 (H-MEC-1; read-out: LC50, H-MEC-1, 48 hours exposure, SRB): 12900 nM
- inhibition at 30 min, 10 µM (CYP3A4): 24%
- GI50 (SK-OV3; Homo sapiens, SK-OV-3, 48 h, SK-OV3, 48 hours exposure, SRB): 4.37 nM
- CC50 (SK-OV3; Homo sapiens, SK-OV-3, 48 h, read-out: LC50, SK-OV3, 48 hours exposure, SRB): 12900 nM
- TGI (SK-OV3; SK-OV3, 48 hours exposure, SRB): 1.46E−08 Molar
- solubility (physchem [4]): < 1 µM
- GI50 (LOVO-DOX; [10]): 26.8 nM
- IC (TGI) (LOVO-DOX; [10]): 124 nM
- CC50 (LOVO-DOX; read-out: LC50, LOVO-DOX, 48 hours exposure, SRB): 12900 nM
- GI50 (SK-BR3; SK-BR3, 48 hours exposure, SRB): 2.21 nM
- IC (TGI) (SK-BR3; SK-BR3, 48 hours exposure, SRB): 6.55 nM
- CC50 (SK-BR3; read-out: LC50, SK-BR3, 48 hours exposure, SRB): 1090 nM
- GI50 (IGROV-ET; [11]): 5.53 nM
- IC (TGI) (IGROV-ET; [11]): 23.5 nM
- CC50 (IGROV-ET; read-out: LC50, IGROV-ET, 48 hours exposure, SRB): 12900 nM
- GI50 (LOVO; 48 hours exposure, SRB): 2.26 nM
- IC (TGI) (LOVO; 48 hours exposure, SRB): 5.68 nM
- CC50 (LOVO; read-out: LC50, LOVO, 48 hours exposure, SRB): 12.9 nM
- GI50 (DU145; DU145, 48 hours exposure, SRB): 3.83 nM
- IC (TGI) (DU145; DU145, 48 hours exposure, SRB): 12 nM
- CC50 (DU145; read-out: LC50, DU145, 48 hours exposure, SRB): 12900 nM
- GI50 (PANC-1; PANC-1, 48 hours exposure, SRB): 4.52 nM
- IC (TGI) (PANC-1; PANC-1, 48 hours exposure, SRB): 42.1 nM
- CC50 (PANC-1; read-out: LC50, PANC-1, 48 hours exposure, SRB): 12900 nM
- GI50 (A549; A549, 48 hours exposure, SRB, read-out: GI50): 3.03 nM
- IC (TGI) (A549; A549, 48 hours exposure, SRB, read-out: TGI): 7.65 nM
- CC50 (A549; read-out: LC50, A549, 48 hours exposure, SRB): 4090 nM
- GI50 (MEL-28; MEL-28, 48 hours exposure, SRB): 2.78 nM
- IC (TGI) (MEL-28; MEL-28, 48 hours exposure, SRB): 7.16 nM
- CC50 (MEL-28; read-out: LC50, MEL-28, 48 hours exposure, SRB): 47 nM
- GI50 (HT29; HT29, 48 hours exposure, SRB): 4.19 nM
- IC (TGI) (HT29; HT29, 48 hours exposure, SRB): 13.2 nM
- CC50 (HT29; read-out: LC50, HT29, 48 hours exposure, SRB): 12900 nM
- GI50 (K562; K562, 48 hours exposure, SRB): 1.14 nM
- IC (TGI) (K562; K562, 48 hours exposure, SRB): 2.67 nM
- CC50 (K562; read-out: LC50, K562, 48 hours exposure, SRB): 10.2 nM
- GI50 (IGROV; 48 hours exposure, SRB): 3.45 nM
- IC (TGI) (IGROV; 48 hours exposure, SRB): 7.72 nM
- CC50 (IGROV; read-out: LC50, IGROV, 48 hours exposure, SRB): 3380 nM
- GI50 (LNCAP; 48 hours exposure, SRB): 0.816 nM
- IC (TGI) (LNCAP; 48 hours exposure, SRB): 2.5 nM
- CC50 (LNCAP; read-out: LC50, LNCAP, 48 hours exposure, SRB): 7.48 nM
- Human Liver S9 Metabolic Stability (% remaining) [5]: 4 % remaining
- Heart [6]: 1.93E−08
- Cell Viability (% inhibition) ((HEPG2)): 23 % inhibition
- Myelo [7]: 4.08E−08
- Liver [8]: 4.88E−08
